According to the supplement of paper PMC10307832:

Columns and labels:
Test in all cases: relative viability (nuclei count vs DMSO), 5 days (fraction); higher = more cells survive
Bromopyruvate = compound: C(C(=O)C(=O)O)Br [Bromopyruvate]
Summary of the method: (§1)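 Only plates meeting two conditions passed: control CV below 25% and at least one doubling. Lung cancer cell lines, kept overnight at 37 °C in 1536-well plates, were pinned with five library-drug doses (not always all listed) √10 apart on vehicle-anchored plates and grown 5 days without medium change. A one-step fix, permeabilisation and Hoechst stain preceded 4× imaging and MetaXpress nuclear counting. Viability equals treated-well nuclei divided by vehicle-well nuclei, as the median over plates.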

Bicalutamide = compound: CC(O)(CS(=O)(=O)c1ccc(F)cc1)C(=O)Nc1ccc(C#N)c(C(F)(F)F)c1 [Bicalutamide]
Summary of the method: as §1

[1] = compound: C(C(=O)C(=O)O)Br [Bromopyruvate] + CCNC(=O)c1noc(-c2cc(C(C)C)c(O)cc2O)c1-c1ccc(CN2CCOCC2)cc1 [Luminespib] (partner 0.01 µM)
Summary of the method: (§2)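 Values are medians from duplicate plates. Each reflects relative viability, defined as the nuclei count of treated wells over that of vehicle wells. Lung cancer cell lines in 1536-well plates were pin-tool dosed one day after seeding with one drug alone or with a fixed anchor-drug dose plus five library-drug doses (not always all listed) in √10 steps, then fixed, stained and imaged at 4× after 5 days.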

[2] = compound: C(C(=O)C(=O)O)Br [Bromopyruvate] + COc1cc2c(Oc3ccc(NC(=O)C4(C(=O)Nc5ccc(F)cc5)CC4)cc3F)ccnc2cc1OCCCN1CCOCC1 [Foretinib] (partner 0.25 µM)
Summary of the method: as §2

Bromopyruvate + OSI-027 = compound: C(C(=O)C(=O)O)Br [Bromopyruvate] + COc1cccc2cc(-c3nc([C@H]4CC[C@H](C(=O)O)CC4)n4ncnc(N)c34)[nH]c12 [OSI-027] (partner 0.5 µM)
Summary of the method: as §2

[3] = compound: C(C(=O)C(=O)O)Br [Bromopyruvate] + Cc1cc(Nc2cc(N3CCN(C)CC3)nc(Sc3ccc(NC(=O)C4CC4)cc3)n2)n[nH]1 [Tozasertib] (partner 0.1 µM)
Summary of the method: as §2

[4] = compound: C(C(=O)C(=O)O)Br [Bromopyruvate] + Cc1nc(Nc2ncc(C(=O)Nc3c(C)cccc3Cl)s2)cc(N2CCN(CCO)CC2)n1 [Dasatinib] (partner 0.075 µM)
Summary of the method: as §2

[5] = compound: C(C(=O)C(=O)O)Br [Bromopyruvate] + N=C(N)NC(=N)NCCc1ccccc1 [Phenformin] (partner 250 µM)
Summary of the method: as §2

[6] = compound: CC(O)(CS(=O)(=O)c1ccc(F)cc1)C(=O)Nc1ccc(C#N)c(C(F)(F)F)c1 [Bicalutamide] + CCNC(=O)c1noc(-c2cc(C(C)C)c(O)cc2O)c1-c1ccc(CN2CCOCC2)cc1 [Luminespib] (partner 0.01 µM)
Summary of the method: as §2

Bicalutamide + Foretinib = compound: CC(O)(CS(=O)(=O)c1ccc(F)cc1)C(=O)Nc1ccc(C#N)c(C(F)(F)F)c1 [Bicalutamide] + COc1cc2c(Oc3ccc(NC(=O)C4(C(=O)Nc5ccc(F)cc5)CC4)cc3F)ccnc2cc1OCCCN1CCOCC1 [Foretinib] (partner 0.25 µM)
Summary of the method: as §2

Bicalutamide + OSI-027 = compound: CC(O)(CS(=O)(=O)c1ccc(F)cc1)C(=O)Nc1ccc(C#N)c(C(F)(F)F)c1 [Bicalutamide] + COc1cccc2cc(-c3nc([C@H]4CC[C@H](C(=O)O)CC4)n4ncnc(N)c34)[nH]c12 [OSI-027] (partner 0.5 µM)
Summary of the method: as §2

[7] = compound: CC(O)(CS(=O)(=O)c1ccc(F)cc1)C(=O)Nc1ccc(C#N)c(C(F)(F)F)c1 [Bicalutamide] + Cc1cc(Nc2cc(N3CCN(C)CC3)nc(Sc3ccc(NC(=O)C4CC4)cc3)n2)n[nH]1 [Tozasertib] (partner 0.1 µM)
Summary of the method: as §2

Bicalutamide + Dasatinib = compound: CC(O)(CS(=O)(=O)c1ccc(F)cc1)C(=O)Nc1ccc(C#N)c(C(F)(F)F)c1 [Bicalutamide] + Cc1nc(Nc2ncc(C(=O)Nc3c(C)cccc3Cl)s2)cc(N2CCN(CCO)CC2)n1 [Dasatinib] (partner 0.075 µM)
Summary of the method: as §2

[8] = compound: CC(O)(CS(=O)(=O)c1ccc(F)cc1)C(=O)Nc1ccc(C#N)c(C(F)(F)F)c1 [Bicalutamide] + N=C(N)NC(=N)NCCc1ccccc1 [Phenformin] (partner 250 µM)
Summary of the method: as §2

NCI-H1623
relative viability (Bromopyruvate; 1 µM): 1.07 | relative viability (Bromopyruvate; 3.162 µM): 0.944 | relative viability (Bromopyruvate; 10 µM): 1.25 | relative viability (Bromopyruvate; 31.62 µM): 0.973 | relative viability (Bromopyruvate; 100 µM): 0.948 | relative viability (Bicalutamide; 0.08 µM): 0.628 | relative viability (Bicalutamide; 0.253 µM): 0.89 | relative viability (Bicalutamide; 0.8 µM): 0.969 | relative viability (Bicalutamide; 2.53 µM): 0.904 | relative viability ([1]; first compound 1 µM): 0.545 | relative viability ([1]; first compound 3.162 µM): 0.523 | relative viability ([1]; first compound 10 µM): 0.747 | relative viability ([1]; first compound 31.62 µM): 0.489 | relative viability ([1]; first compound 100 µM): 0.504 | relative viability ([2]; first compound 1 µM): 0.897 | relative viability ([2]; first compound 3.162 µM): 0.879 | relative viability ([2]; first compound 10 µM): 0.99 | relative viability ([2]; first compound 31.62 µM): 0.927 | relative viability ([2]; first compound 100 µM): 0.987 | relative viability (Bromopyruvate + OSI-027; first compound 1 µM): 0.495 | relative viability (Bromopyruvate + OSI-027; first compound 3.162 µM): 0.428 | relative viability (Bromopyruvate + OSI-027; first compound 10 µM): 0.46 | relative viability (Bromopyruvate + OSI-027; first compound 31.62 µM): 0.383 | relative viability (Bromopyruvate + OSI-027; first compound 100 µM): 0.399 | relative viability ([3]; first compound 1 µM): 0.419 | relative viability ([3]; first compound 3.162 µM): 0.423 | relative viability ([3]; first compound 10 µM): 0.527 | relative viability ([3]; first compound 31.62 µM): 0.468 | relative viability ([3]; first compound 100 µM): 0.369 | relative viability ([4]; first compound 1 µM): 0.574 | relative viability ([4]; first compound 3.162 µM): 0.487 | relative viability ([4]; first compound 10 µM): 0.672 | relative viability ([4]; first compound 31.62 µM): 0.597 | relative viability ([4]; first compound 100 µM): 0.576 | relative viability ([5]; first compound 1 µM): 0.545 | relative viability ([5]; first compound 3.162 µM): 0.654 | relative viability ([5]; first compound 10 µM): 0.635 | relative viability ([5]; first compound 31.62 µM): 0.588 | relative viability ([5]; first compound 100 µM): 0.625 | relative viability ([6]; first compound 0.253 µM): 0.647 | relative viability ([6]; first compound 0.8 µM): 0.596 | relative viability ([6]; first compound 2.53 µM): 0.459 | relative viability (Bicalutamide + Foretinib; first compound 0.08 µM): 0.883 | relative viability (Bicalutamide + Foretinib; first compound 0.253 µM): 0.884 | relative viability (Bicalutamide + Foretinib; first compound 0.8 µM): 0.918 | relative viability (Bicalutamide + Foretinib; first compound 2.53 µM): 0.869 | relative viability (Bicalutamide + OSI-027; first compound 0.08 µM): 0.43 | relative viability (Bicalutamide + OSI-027; first compound 0.253 µM): 0.447 | relative viability (Bicalutamide + OSI-027; first compound 0.8 µM): 0.487 | relative viability (Bicalutamide + OSI-027; first compound 2.53 µM): 0.531 | relative viability ([7]; first compound 0.253 µM): 0.445 | relative viability ([7]; first compound 0.8 µM): 0.471 | relative viability ([7]; first compound 2.53 µM): 0.463 | relative viability (Bicalutamide + Dasatinib; first compound 0.253 µM): 0.524 | relative viability (Bicalutamide + Dasatinib; first compound 0.8 µM): 0.562 | relative viability (Bicalutamide + Dasatinib; first compound 2.53 µM): 0.54 | relative viability ([8]; first compound 0.253 µM): 0.594 | relative viability ([8]; first compound 0.8 µM): 0.587 | relative viability ([8]; first compound 2.53 µM): 0.55
